These results are taken from patent US10618886B1, “Compounds as neuronal histamine receptor-3 antagonists and uses thereof” (XW LABORATORIES INC., priority 2018, dated 2020).

For assay [1], the target named is T1, histamine H3 receptor (hH3R) (Homo sapiens (Human), UniProt Q9Y5N1). Briefly: [35S]-GTPγS binding assay, inverse agonist mode, HEK293/Ga15/hH3R membranes. The class given is biochemical. As to conditions: no agonist, 10 points, 3-fold dilution from 1 μM. Here is the method: (§1) The histamine H3 receptors mediate the histamine signals in CNS and peripheral nervous system. Histamine H3 receptors couple directly to a Gi/Go, resulting in subsequent GTPγδ binding. Although GTPγδ binding assays are carried out using membrane preparations in the similar way as radioligand binding assays, these are functional assays and can be used to differentiate agonist, antagonist, and inverse agonist activities. Such assays are carried out using [^35S]-guanosine-5′-O-(3-thio) triphosphate which provides a radioactive ligand with high affinity for G-protein a subunits that is highly resistant to the inherent GTPase activity of a subunits, such that it remains bound for sufficient periods of time to allow counting of radioactivity. The GTPγδ binding assay was performed using HEK293/Ga15/hH3R cell line with high histamine H3 receptors expression to determine H3 receptor GTPγδ binding affinity of representative compounds.
T1 sequence (Q9Y5N1 whole entry): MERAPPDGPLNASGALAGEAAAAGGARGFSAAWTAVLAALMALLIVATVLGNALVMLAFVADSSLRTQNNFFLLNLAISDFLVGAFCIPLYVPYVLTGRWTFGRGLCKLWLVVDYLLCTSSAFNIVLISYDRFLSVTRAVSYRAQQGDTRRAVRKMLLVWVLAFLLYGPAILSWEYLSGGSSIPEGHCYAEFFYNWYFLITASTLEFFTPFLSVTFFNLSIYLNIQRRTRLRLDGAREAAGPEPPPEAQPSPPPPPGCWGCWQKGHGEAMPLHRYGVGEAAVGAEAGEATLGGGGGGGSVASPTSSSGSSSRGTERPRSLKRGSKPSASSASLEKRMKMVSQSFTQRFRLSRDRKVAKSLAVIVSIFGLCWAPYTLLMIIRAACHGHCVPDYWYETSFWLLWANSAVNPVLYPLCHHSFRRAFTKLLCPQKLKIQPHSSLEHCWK
(§2) 1. [^35S]-GTPγδ binding assay for determining antagonist and inverse agonist pharmacological parameters of histamine H3 receptor ligands:
(§3) Experimental procedure: 1) Membrane preparation for HEK293/Ga15/hH3R; 2) Standard binding assay. Briefly, for membrane […], HEK293/Ga15/hH3R cells were grown to confluence, harvested and the cell pellets were suspended in TEL buffer (50 mM Tris-HCl buffer, 1 mM EGTA, 0.1 mM PMSF). Homogenate and centrifuge at 1,000 g for 10 min. Centrifuge the supernatant at 46,000 g for 30 min. Suspend the membrane pellet in 50 mM Tris with 0.32 M sucrose, pH 7.0. Aliquot at 1 mg protein/mL. Keep frozen and store at −80° C. until use. All compounds were prepared by dissolving in DMSO to make 10 mM stock. The 10 mM stock was used as top concentration […] to carry out 10-points, 3-fold dilution scheme using DMSO in a 96-well plate to make the compound dose plate. H3R GTPγδ binding assay was performed as followings: thaw the membrane at 37° C., chill on ice, add GDP and the membrane to assay buffer (50 mM Tris-HCl, 100 mM NaCl, 5 mM MgCl2, pH 7.4, and 0.2%, BSA). Stay on ice for 20 min. […] Add 20 μL [^35S]-GTPγδ (final 200 pM) and incubate at room temperature for 60 min. For antagonist mode: Add 20 μL agonist (R-alpha-methylhistamine, final concentration 1 μM), 20 μL testing compound (final top concentration 1 μM, 3-fold dilution, 10 points), 20 μL [^35S]-GTPγδ (final 200 pM), 140 μL membrane solution (total 200 μL, GDP 10μM, membrane protein 20 μg/well) to the assay plate. Incubate at room temperature for 60 min. Filter the assay plate on GF/C (non-PEI coated) plate to stop the assay. Dry GF/C plate for 1 h. Add 50 μL scintillation fluid and count on the MicroBeta.
(§4) Data Analysis: The CPM values were calculated into % of inhibition with the following formula:
For inverse agonist mode: % of inhibition=(DMSO control CPM−Compound CPM)/(DMSO control CPM−GTP control CPM)×100.
(§5) IC50s were calculated using Prism5 with log(inhibitor) vs. response equation.

The target in assay [2] is T1, histamine H3 receptor (hH3R). Briefly: [35S]-GTPγS binding assay, antagonist mode, HEK293/Ga15/hH3R membranes. The class given is biochemical. As to conditions: agonist R-alpha-methylhistamine 1 μM, 10 points, 3-fold dilution from 1 μM. Here is the method:
as §1, §2, §3, §4
For antagonist mode: % of inhibition=(R-alpha-methyl-histamine control CPM−Compound CPM)/(R-alpha-methyl-histamine control CPM−DMSO control CPM)×100.
as §5

For orientation: IC50 means the midpoint of a concentration-inhibition curve. Low readings indicate inhibition by little substance, high ones a need for much substance. As for `Cc1nc2ccc(S(F)(F)(F)(F)F)cc2c(=O)n1-c1ccc(OC2CCN(C(=O)C3CCOCC3)CC2)cc1` [XXI, 2-methyl-3-(4-((1-(tetrahydro-2H-pyran-4-carbonyl)piperidin-4-yl)oxy)phenyl)-6-(pentafluorosulfanyl)quinazolin-4(3H)-one], the IC50 is 286 nM in assay [1] and more than 1000 nM in assay [2].

On to `COc1cc(OC2CCN(C(=O)C3CCOCC3)CC2)ccc1-n1c(C)nc2ccc(S(F)(F)(F)(F)F)cc2c1=O` [XXII, 3-(2-methoxy-4-((1-(tetrahydro-2H-pyran-4-carbonyl)piperidin-4-yl)oxy)phenyl)-2-methyl-6-(pentafluorosulfanyl)quinazolin-4(3H)-one], for which the figures for the IC50 in assay [1] and in assay [2] were 229 nM and 242 nM, respectively.

`COc1cc(OCCCN2CCCC2)ccc1-n1c(C)nc2ccc(S(F)(F)(F)(F)F)cc2c1=O` [VI, 3-(2-methoxy-4-(3-(pyrrolidin-1-yl)propoxy)phenyl)-2-methyl-6-(pentafluorosulfanyl)quinazolin-4(3H)-one]: the results for the IC50 in assay [1] and in assay [2] were 5.5 nM and 5.36 nM, respectively.

On to `Cc1nc2ccc(S(F)(F)(F)(F)F)cc2c(=O)n1-c1ccc(OC2CCN(C(=O)C3CCN(C)CC3)CC2)cc1` [XX, 2-methyl-3-(4-((1-(1-methylpiperidine-4-carbonyl)piperidin-4-yl)oxy)phenyl)-6-(pentafluorosulfanyl)quinazolin-4(3H)-one], for which the IC50 in assay [1] amounted to 50.5 nM; in assay [2], 814 nM.

Consider `Cc1nc2ccc(S(F)(F)(F)(F)F)cc2c(=O)n1-c1ccc(OC2CCN(C(=O)C3CCCCC3)CC2)cc1` [XIX, 3-(4-((1-(cyclohexanecarbonyl)piperidin-4-yl)oxy)phenyl)-2-methyl-6-(pentafluorosulfanyl)quinazolin-4(3H)-one], for which the IC50 in assay [1] and in assay [2] was more than 1000 nM each time.

As for `Cc1nc2ccc(S(F)(F)(F)(F)F)cc2c(=O)n1-c1ccc(OCCCN2CCC(C)C2)cc1` (centres unmarked) [VII, 2-methyl-3-(4-(3-(3-methylpyrrolidin-1-yl)propoxy)phenyl)-6-(pentafluorosulfanyl)quinazolin-4(3H)-one], the values for the IC50 in assay [1] and in assay [2] were 10.5 nM and 3.44 nM, respectively.

In the case of `Cc1nc2ccc(S(F)(F)(F)(F)F)cc2c(=O)n1-c1ccc(OC2CCN(C3CCCC3)CC2)cc1` [XVI], the IC50 worked out at 175 nM in assay [1] and 116 nM in assay [2].
